# From patent publication US20230227566A1, “AMHRII-BINDING COMPOUNDS FOR PREVENTING OR TREATING LUNG CANCERS” (GAMAMABS PHARMA, priority 2017, published 2023)
# T1: human Anti-Mullerian Hormone type II Receptor (AMHRII) (human, UniProt Q16671 18-573)
# T1 construct: also called AMHR2; MISRII
# T1 sequence: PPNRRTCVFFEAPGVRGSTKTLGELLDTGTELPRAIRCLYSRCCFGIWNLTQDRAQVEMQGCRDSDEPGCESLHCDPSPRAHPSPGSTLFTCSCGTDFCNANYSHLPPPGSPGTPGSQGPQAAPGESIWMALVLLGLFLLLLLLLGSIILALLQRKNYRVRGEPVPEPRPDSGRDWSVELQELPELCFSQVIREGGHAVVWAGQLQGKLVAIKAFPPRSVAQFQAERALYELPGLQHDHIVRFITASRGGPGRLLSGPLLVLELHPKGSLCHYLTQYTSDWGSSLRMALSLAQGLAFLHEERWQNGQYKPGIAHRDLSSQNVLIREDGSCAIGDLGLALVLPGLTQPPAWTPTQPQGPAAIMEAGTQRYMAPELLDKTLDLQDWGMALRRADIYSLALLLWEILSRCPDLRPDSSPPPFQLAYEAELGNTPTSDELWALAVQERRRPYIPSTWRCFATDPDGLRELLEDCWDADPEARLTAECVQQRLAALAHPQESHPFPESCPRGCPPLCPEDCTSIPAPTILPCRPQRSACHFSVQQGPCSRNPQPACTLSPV
# T2: AMHRII (Homo sapiens, UniProt Q16671)
# T2 sequence (Q16671 18-573): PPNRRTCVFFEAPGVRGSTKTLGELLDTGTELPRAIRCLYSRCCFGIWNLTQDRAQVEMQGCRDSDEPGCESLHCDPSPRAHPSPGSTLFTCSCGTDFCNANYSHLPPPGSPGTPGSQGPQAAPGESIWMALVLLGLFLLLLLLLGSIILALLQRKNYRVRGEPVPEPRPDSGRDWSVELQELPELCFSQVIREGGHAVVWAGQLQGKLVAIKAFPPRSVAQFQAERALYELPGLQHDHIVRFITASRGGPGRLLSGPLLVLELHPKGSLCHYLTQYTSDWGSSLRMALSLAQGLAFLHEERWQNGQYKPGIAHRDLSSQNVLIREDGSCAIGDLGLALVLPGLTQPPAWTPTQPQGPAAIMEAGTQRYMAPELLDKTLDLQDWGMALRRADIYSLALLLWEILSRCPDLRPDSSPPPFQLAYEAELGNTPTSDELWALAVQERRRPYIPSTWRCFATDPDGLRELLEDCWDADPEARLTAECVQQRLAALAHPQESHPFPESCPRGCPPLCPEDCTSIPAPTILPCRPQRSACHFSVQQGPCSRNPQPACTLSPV
# Key:
# SC131 tumor model = test: response of SC131 tumor model to standard-of-care agents; format: in vivo, mouse; settings: data obtained on swiss nude mice
# Text: Human tumor samples of various histological origins were obtained with informed consent from patients treated at cancer centers and established as transplantable xenografts in immunodeficient mice. The grafted samples are residual material from primary tumors or metastases obtained before or after treatment. These patient-derived xenograft (PDX) models have been established without prior in vitro culture and have been studied for histology, cytogenetics, genetic and other biological markers, and for their response to standard-of-care (SOC) therapies.
# SC131 is low responder to docetaxel and to the combination cisplatin/gemcitabine, and no responder to the other agents tested (data obtained on swiss nude mice).
# [1] = test system: SC131 patient-derived non-small-cell lung xenograft; test: antitumor efficacy study XTS-1526 in SC131 patient-derived xenograft; settings: for CR (complete regression), number of mice / TFS (Tumor Free Survivor), number of mice / TS (Tumor Stabilization), number of mice / PR (partial regression), number of mice: 9 mice per group; for antitumor efficacy compared with control group 1 (in words): Mann-Whitney test vs vehicle; for TGDI (Tumor Growth Delay Index): TGD treated/TGD control, same regimens; for TS (Tumor Stabilization), number of mice: constant tumor size during at least 3 consecutive measurements; for Best T/C%: day of best T/C D16 (G6: D11); for T/C % at day 16: mean tumor volume treated/control x100, day 16; for median TGD x 5: time to reach 5x D0 tumor volume, GM102 20 mg/kg IV 2qwk, docetaxel 20 mg/kg slow IV D0, cisplatin 5 + gemcitabine 100 mg/kg IP qwk; for PR (partial regression), number of mice: tumor size lower than initial during at least 3 consecutive measurements;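 on all read-outs here: subcutaneous tumor fragments grafted in mice, tumor volume from caliper diameters (length × width²/2) taken three times weekly during treatment, each treated group compared against vehicle controls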
# Description: Fifty-four (54) mice with a subcutaneously growing SC131 tumor (P22.1.3/0) between 62.5 and 220.5 mm^3 were allocated to treatment when the mean and median tumor volume reached 130.76 and 126.00 mm^3 respectively.
# Tumors of the same passage were transplanted subcutaneously onto 3-24 mice (donor mice, passage (n−1)). When these tumors reached 700 to 2000 mm^3, donor mice were sacrificed by cervical dislocation, tumors were aseptically excised and dissected. After removing necrotic areas, tumors were cut into fragments measuring approximately 20 mm^3 and transferred in culture medium before grafting.
# Eighty-nine (89) mice were anaesthetized with 100 mg/kg ketamine hydrochloride (batch 5D92—exp: 03-2017, Virbac) and 10 mg/kg xylazine (batch KP0AX9X, Bayer), and then skin was aseptized with a chlorhexidine solution, incised at the level of the interscapular region, and a 20 mm^3 tumor fragment was placed in the subcutaneous tissue. Skin was closed with clips.
# Treatments were randomly attributed to boxes housing up to 5 mice and were initiated 18 days post implantation of the tumor (60% inclusion rate with staggered inclusion). The study was staggered-included with 5 mice included per group first, then 4 mice included per group 2 days later. The study was terminated following 31 days after the start of treatment.
# For the additional groups 7 and 8, tumor size was higher and more heterogeneous. Animals were included 32 days post implantation.
# Tumor volume was evaluated by measuring tumor diameters, with a caliper, three times a week during the treatment period. The formula TV (mm^3)=[length (mm)×width (mm)^2]/2 was used, where the length and the width are the longest and the shortest diameters of the tumor, respectively.
# For the groups 1 to 6, each group initially included 9 mice. For the groups 7 and 8, each group initially included 8 mice.
# Individual tumor growth delays (TGD) was calculated as the time in days required for individual tumors to reach 3- to 5-fold the initial tumor volume.
# The tumor growth delay index (TGDI) was calculated as the median growth delay in the treated group divided by the median growth delay in the control group.
# The percentage ratio between the mean tumor volume of a treated group (T) and the mean tumor volume of the control group (C) was calculated.
# Statistical analysis was done for each measurement by Mann-Whitney non parametric comparison test. Each treated group was compared with control group.
# Tumor Stabilization (TS) was defined as the number of mice presenting a constant tumor size during at least 3 consecutive measurements.
# Partial tumor Regression (PR) was defined as the number of mice presenting a tumor size lower than initial tumor size during at least 3 consecutive measurements.
# [2] = tolerability (body weight, clinical observations) in study XTS-1526
# Description: Adverse effect of the different treatments was determined as: • Relative Body Weight (RBW) will be calculated for each measurement by dividing the body weight by the body weight at the start of treatment. • Individual Body weight loss percent (% BWL)=100−(BWx/BW0×100), where BWx is the BW at any day during the treatment and BW0 is the BW on the 1st day of treatment.
# Mice were observed every day for physical appearance, behavior and clinical changes.
# Animals were sacrificed based on the following criteria: • Body weight loss (BWL)≥20% compared to the 1st day of treatment for 48 consecutive hours (3 measurements). • General alteration of behaviour or clinical signs. • Tumor volume ≥2000 mm^3.
# Mean Body weight loss percent (% BWL)=100−(mean BWx/mean BW0x 100), where BWx is the mean BW at any day during the treatment and BW0 is the mean BW on the 1st day of treatment.
# [3] = target: T1, human Anti-Mullerian Hormone type II …; test: immunohistochemistry (immunoperoxidase, biotinylated antibody) on AMHR2-transfected COV434 cells
# [4] = test system: AMHR2-transfected human tumor cell lines; settings: cited from earlier work
# AMHRII = target: T2, AMHRII; test: binding of 3C23K antibody to AMHRII (Kd)
# [5] = test system: LXFE2226 squamous non-small cell lung cancer model tumor xenografts; test: antitumor efficacy in LXFE2226 tumor xenografts; format: in vivo, mouse
# Text: Tumor fragments were obtained from xenografts in serial passage in nude mice. After removal from donor mice, tumors were cut into fragments (3-4 mm edge length) and placed in PBS containing 10% penicillin/streptomycin. Recipient animals were anesthetized by inhalation of isoflurane and received unilateral or bilateral tumor implants subcutaneously in the flank.
# LXFE2226 squamous non-small cell lung cancer model tumor xenografts were implanted subcutaneously with one tumor per mouse (NMRI-Foxn1^nu from Charles River). The experiment consisted of two groups of mice from which three of them were euthanized on day 15 for detecting membranous AMHRII expression by flow cytometry. The first group was a vehicle control group and the second group received the investigational antibody GM102, which was administered intraperitoneally (i.p.) twice weekly at a dose level of 20 mg/kg.
# Antitumor efficacy was evaluated as minimum T/C value by comparison of group median relative tumor volumes (RTVs) on the days where the optimal efficacy was reached. The experiment was terminated on day 43 after a two-week dosing-free observation period.
molecule,measurement,setting,value
CC(=O)O[C@@]12CO[C@@H]1C[C@H](O)[C@@]1(C)C(=O)[C@H](O)C3=C(C)[C@@H](OC(=O)[C@H](O)[C@@H](NC(=O)OC(C)(C)C)c4ccccc4)C[C@@](O)([C@@H](OC(=O)c4ccccc4)[C@H]21)C3(C)C [Docetaxel],response of SC131 to the agent (in words),SC131 tumor model,low responder
same,"CR (complete regression), number of mice",[1],0
same,"TFS (Tumor Free Survivor), number of mice",[1],0
same,antitumor efficacy compared with control group 1 (in words),[1],strong and statistically significant
same,TGDI (Tumor Growth Delay Index),[1],>2.71
same,TGDI (Tumor Growth Delay Index),[1]; listed as docetaxel,> 2.71
same,"TS (Tumor Stabilization), number of mice",[1],7
same,"TS (Tumor Stabilization), number of mice",[1]; listed as docetaxel,7/9
same,"Mann-Whitney analysis on tumor volume vs vehicle, day 4",[1]; day 4,** (P < 0.01)
same,"Mann-Whitney analysis on tumor volume vs vehicle, day 7",[1]; day 7,*** (P < 0.001)
same,"Mann-Whitney analysis on tumor volume vs vehicle, day 9",[1]; day 9,*** (P < 0.001)
same,"Mann-Whitney analysis on tumor volume vs vehicle, day 11",[1]; day 11,*** (P < 0.001)
same,"Mann-Whitney analysis on tumor volume vs vehicle, day 14",[1]; day 14,*** (P < 0.001)
same,"Mann-Whitney analysis on tumor volume vs vehicle, day 16",[1]; day 16,*** (P < 0.001)
same,Best T/C%,[1],11.00%
same,Best T/C%,[1]; listed as docetaxel,11.00%
same,T/C % at day 16,[1],11.00%
same,median TGD x 5,[1],>28 days
same,"PR (partial regression), number of mice",[1],2
same,"PR (partial regression), number of mice",[1]; listed as docetaxel,2/9
same,mice that had to be sacrificed before the end of the study,"[2]; despite DietGel, 9 mice per group (groups 7, 8: 8)",4
same,maximum individual body weight loss,"[2]; mouse, in vivo",23.8%
same,maximum mean body weight loss,"[2]; mouse, in vivo",17.0%
"3C23K anti-AMHRII monoclonal antibody (antibody, human IgG1, kappa, V domains shown, Humanized mAb; GM102 is described as a low fucose form; also called GM102; 3C23K-AF) VH: QVRLVQSGAEVKKPGASVKVSCKASGYTFTSYHIHWVRQAPGQRLEWMGWIYPGDDSTKYSQKFQGRVTITRDTSASTAYMELSSLRSEDTAVYYCTRGDRFAYWGQGTLVTVSS VL: DIQMTQSPSTLSASVGDRVTITCRASSSVRYIAWYQQKPGKAPKLLTYPTSSLKSGVPSRFSGSGSGTEFTLTISSLQPDDFATYYCLQWSSYPWTFGGGTKVEIKR",binding result,[3],binds
"GM102: humanized anti-AMHRII (AMHR2) monoclonal antibody, low fucose; VH SEQ ID NO 19, VL SEQ ID NO 36 (antibody, V domains shown, low fucose; Synthetic 3C23K/3C23; Synthetic 3C23K) VH: QVRLVQSGAEVKKPGASVKVSCKASGYTFTSYHIHWVRQAPGQRLEWMGWIYPGDDSTKYSQKFQGRVTITRDTSASTAYMELSSLRSEDTAVYYCTRGDRFAYWGQGTLVTVSS VL: DIQMTQSPSTLSASVGDRVTITCRASSSVRYIAWYQQKPGKAPKLLTYPTSSLKSGVPSRFSGSGSGTEFTLTISSLQPDDFATYYCLQWSSYPWTFGGGTKVEIK","CR (complete regression), number of mice",[1],0
same,"TFS (Tumor Free Survivor), number of mice",[1],0
same,tumor growth inhibition,"[1]; GM102 alone, did not reach statistical significance",25%
same,antitumor efficacy compared with control group 1 (in words),[1],did not demonstrate any antitumor efficacy
same,TGDI (Tumor Growth Delay Index),[1],1.33
same,"TS (Tumor Stabilization), number of mice",[1],0
same,Best T/C%,[1],74.68%
same,T/C % at day 16,[1],74.68%
same,median TGD x 5,[1],13.70 days
same,"PR (partial regression), number of mice",[1],0
same,efficacy in combination with carboplatin and paclitaxel (in words),"[4]; Jacquet A., Cancer Res, 2012",synergistic
same,antitumor efficacy (in words),"[4]; mouse, in vivo",display antitumor efficacy
same,mice found dead,"[2]; 9 mice per group (groups 7, 8: 8)",Mouse #27 was found dead on day 27
same,maximum mean body weight loss,"[2]; SC131-bearing nude mice (cachectic tumor), day of maximum differs per group",9.8%
same,maximum individual body weight loss,"[2]; SC131-bearing nude mice, day of maximum differs per group",16.8%
same,tolerability (in words),"[2]; mouse, in vivo, iv, 20 mg/kg",well tolerated
same,Kd,AMHRII,0.0553 nM
same,tumor volume at Day 28 vs vehicle (in words),"[5]; Day 28, p<0.001",drastically reduction of the tumor volume
same,anti-tumor activity (in words),"[5]; GM102 20 mg/kg i.p. twice weekly, NMRI-Foxn1nu mice",strong anti-tumor activity
